Test results: patent US20110152313A1 (MACQUARIE UNIVERSITY, priority 2008, published 2011)

How the values were obtained:
Experiment in all cases: kinase binding screen (kinase-tagged T7 phage, qPCR), % Ctrl
CAMK1G = CAMK1G (Homo sapiens, UniProt Q96NX5)
How it was run: (§1)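 Steps: grow T7 phage displaying kinase in BL21-derived E. coli; clarify lysate; combine with ligand-liganded, blocked beads and compound (single concentration, diluted from 40× DMSO stock); elute; quantify kinase by qPCR.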

ROCK2 = ROCK2 (Homo sapiens, UniProt O75116)
How it was run: as §1

PIK3C2G = molecular target: T1, PIK3C2G (Homo sapiens, UniProt O75747)
T1 sequence (O75747 1-1486): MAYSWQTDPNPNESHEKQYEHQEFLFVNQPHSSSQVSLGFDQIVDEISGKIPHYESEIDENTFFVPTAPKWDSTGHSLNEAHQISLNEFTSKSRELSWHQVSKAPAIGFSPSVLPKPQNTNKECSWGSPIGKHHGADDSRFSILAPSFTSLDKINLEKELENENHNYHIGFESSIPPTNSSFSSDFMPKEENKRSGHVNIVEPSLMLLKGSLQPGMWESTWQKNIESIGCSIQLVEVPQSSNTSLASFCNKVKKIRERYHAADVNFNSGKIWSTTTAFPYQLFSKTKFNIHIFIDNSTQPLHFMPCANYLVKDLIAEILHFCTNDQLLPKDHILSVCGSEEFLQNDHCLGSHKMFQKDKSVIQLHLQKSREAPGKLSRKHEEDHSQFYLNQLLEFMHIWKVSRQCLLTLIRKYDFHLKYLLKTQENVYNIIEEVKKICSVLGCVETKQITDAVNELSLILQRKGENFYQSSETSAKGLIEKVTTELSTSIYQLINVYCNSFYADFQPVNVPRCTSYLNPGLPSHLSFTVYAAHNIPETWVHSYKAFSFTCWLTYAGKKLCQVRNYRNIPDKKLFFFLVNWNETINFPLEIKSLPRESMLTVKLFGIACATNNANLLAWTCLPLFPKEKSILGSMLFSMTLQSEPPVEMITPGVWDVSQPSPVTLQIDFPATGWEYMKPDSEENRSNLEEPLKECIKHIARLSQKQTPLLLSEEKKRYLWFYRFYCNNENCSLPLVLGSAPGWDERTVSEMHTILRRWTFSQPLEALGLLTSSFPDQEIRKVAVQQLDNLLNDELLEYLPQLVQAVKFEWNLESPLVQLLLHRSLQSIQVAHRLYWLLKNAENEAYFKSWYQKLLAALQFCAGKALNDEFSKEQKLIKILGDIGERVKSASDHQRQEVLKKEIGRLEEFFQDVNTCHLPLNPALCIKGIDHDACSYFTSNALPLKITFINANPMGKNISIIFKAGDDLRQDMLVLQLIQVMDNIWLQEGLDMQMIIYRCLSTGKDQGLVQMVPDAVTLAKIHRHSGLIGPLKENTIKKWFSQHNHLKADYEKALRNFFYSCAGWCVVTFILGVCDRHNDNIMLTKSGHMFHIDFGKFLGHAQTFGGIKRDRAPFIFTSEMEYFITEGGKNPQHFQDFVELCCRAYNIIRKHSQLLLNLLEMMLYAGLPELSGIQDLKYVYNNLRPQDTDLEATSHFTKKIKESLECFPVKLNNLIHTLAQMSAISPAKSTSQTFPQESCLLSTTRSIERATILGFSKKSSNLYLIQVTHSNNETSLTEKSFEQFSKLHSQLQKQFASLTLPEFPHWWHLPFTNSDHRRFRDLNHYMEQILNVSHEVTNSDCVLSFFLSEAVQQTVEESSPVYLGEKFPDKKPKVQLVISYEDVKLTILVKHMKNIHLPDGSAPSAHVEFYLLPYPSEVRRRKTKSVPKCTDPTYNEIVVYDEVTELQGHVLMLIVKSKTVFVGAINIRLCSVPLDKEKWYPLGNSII
How it was run: as §1

PRKCE = molecular target: T2, PRKCE (Homo sapiens, UniProt Q02156)
T2 sequence (Q02156 1-737): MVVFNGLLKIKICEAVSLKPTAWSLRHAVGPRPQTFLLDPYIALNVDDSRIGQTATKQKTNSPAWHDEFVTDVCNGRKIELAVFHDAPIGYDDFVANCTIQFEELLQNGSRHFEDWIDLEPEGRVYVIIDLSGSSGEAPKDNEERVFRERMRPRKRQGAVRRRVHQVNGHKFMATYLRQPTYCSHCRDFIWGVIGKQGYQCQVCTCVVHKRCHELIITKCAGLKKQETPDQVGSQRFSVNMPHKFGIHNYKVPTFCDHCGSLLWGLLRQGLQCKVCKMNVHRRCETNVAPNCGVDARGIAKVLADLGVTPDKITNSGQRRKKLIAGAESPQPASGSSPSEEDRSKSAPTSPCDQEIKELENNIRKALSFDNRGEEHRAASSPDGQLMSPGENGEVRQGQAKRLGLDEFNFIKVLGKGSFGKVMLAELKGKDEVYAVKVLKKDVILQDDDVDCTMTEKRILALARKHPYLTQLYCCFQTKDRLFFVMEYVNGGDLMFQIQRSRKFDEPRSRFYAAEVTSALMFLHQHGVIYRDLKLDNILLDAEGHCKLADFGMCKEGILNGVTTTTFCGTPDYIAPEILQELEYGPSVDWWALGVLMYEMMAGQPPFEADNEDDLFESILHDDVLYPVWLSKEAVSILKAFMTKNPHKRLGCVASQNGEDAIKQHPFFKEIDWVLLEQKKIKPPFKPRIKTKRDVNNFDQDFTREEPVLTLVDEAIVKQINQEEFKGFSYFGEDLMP
How it was run: as §1

ROCK2, sequence (O75116 whole entry, species assumed): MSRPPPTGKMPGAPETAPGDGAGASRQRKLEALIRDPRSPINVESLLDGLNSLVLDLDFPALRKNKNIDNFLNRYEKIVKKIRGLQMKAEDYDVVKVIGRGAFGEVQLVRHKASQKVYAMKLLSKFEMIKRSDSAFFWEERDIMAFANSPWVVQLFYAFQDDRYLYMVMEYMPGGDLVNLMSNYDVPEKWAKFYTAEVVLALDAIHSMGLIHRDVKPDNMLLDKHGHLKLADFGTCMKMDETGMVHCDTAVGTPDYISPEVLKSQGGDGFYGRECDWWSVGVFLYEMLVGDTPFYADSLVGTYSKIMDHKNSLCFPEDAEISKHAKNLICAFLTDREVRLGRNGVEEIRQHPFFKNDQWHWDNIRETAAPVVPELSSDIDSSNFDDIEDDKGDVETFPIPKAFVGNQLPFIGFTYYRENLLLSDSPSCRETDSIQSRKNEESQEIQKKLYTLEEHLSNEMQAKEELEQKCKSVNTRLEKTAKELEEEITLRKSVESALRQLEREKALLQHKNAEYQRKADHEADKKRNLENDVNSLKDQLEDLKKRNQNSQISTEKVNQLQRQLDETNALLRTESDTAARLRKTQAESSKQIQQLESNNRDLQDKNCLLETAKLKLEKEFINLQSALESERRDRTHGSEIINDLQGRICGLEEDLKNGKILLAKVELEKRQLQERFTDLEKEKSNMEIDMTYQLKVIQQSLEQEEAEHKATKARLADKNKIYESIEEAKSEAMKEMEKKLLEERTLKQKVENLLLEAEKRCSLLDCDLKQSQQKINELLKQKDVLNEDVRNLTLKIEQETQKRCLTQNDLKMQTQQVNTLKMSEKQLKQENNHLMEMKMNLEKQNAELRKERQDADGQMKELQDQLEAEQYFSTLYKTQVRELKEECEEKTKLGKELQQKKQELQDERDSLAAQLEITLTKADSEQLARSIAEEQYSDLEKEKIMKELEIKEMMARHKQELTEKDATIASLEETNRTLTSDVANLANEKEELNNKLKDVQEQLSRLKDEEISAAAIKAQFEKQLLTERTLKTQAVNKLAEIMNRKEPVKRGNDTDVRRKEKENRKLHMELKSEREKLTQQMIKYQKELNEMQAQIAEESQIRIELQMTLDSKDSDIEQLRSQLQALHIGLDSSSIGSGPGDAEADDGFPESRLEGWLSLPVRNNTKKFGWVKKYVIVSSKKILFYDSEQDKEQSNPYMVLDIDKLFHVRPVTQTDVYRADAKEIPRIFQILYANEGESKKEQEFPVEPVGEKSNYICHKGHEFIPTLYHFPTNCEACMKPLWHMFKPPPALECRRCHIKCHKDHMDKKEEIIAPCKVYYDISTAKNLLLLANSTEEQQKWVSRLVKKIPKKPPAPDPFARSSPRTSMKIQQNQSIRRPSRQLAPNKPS
CAMK1G, sequence (Q96NX5 whole entry): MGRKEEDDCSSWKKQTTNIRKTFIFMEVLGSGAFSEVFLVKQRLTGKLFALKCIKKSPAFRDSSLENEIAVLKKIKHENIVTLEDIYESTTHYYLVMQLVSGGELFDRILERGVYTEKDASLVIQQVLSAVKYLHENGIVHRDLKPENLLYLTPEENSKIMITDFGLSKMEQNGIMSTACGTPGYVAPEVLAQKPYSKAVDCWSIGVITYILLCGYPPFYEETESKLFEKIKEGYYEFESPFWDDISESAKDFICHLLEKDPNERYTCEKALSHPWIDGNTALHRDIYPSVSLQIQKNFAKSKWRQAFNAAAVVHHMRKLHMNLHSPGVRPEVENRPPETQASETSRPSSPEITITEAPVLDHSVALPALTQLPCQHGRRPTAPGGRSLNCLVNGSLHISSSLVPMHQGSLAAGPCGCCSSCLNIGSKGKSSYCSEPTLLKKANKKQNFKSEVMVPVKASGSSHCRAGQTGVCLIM

| Compound | remaining activity at 1 µM (CAMK1G) [%] | remaining activity at 10 µM (CAMK1G; 10 μM) [%] | remaining activity at 1 µM (ROCK2) [%] | remaining activity at 10 µM (ROCK2; 10 μM) [%] | remaining activity at 1 µM (PIK3C2G) [%] | remaining activity at 10 µM (PIK3C2G; 10 μM) [%] | remaining activity at 1 µM (PRKCE) [%] | remaining activity at 10 µM (PRKCE; 10 μM) [%] |
| --- | --- | --- | --- | --- | --- | --- | --- | --- |
| Nc1nc2c(-c3cc(Br)c(Br)[nH]3)nccc2[nH]1 [Ageladine A, ageladine A, reference compound] | 100 | 96 | 65 | 38 | 99 | 80 | 54 | 100 |
| Nc1nc2c(-c3ccccn3)nccc2[nH]1 [drawing 35, 4-(pyrid-2-yl)-1H-imidazo[4,5-c]pyridin-2-amine] | 43 |  | 45 |  | 66 |  | 20 |  |
| Nc1nc2c(-c3cnc4ccccc4c3)nccc2[nH]1 [drawing 36, 4-(quinolin-3-yl)-1H-imidazo[4,5-c]pyridin-2-amine] | 100 |  | 100 |  | 30 |  | 100 |  |
